Results reported in patent US5594009A, “Fused pyrrolocarbazoles” (priority 1995, dated 1997).
Each block holds one compound with its values, some of them ahead of it.

Legend:
[1] = test system: choline acetyltransferase (ChAT) activity in dissociated rat embryonic spinal cord culture; experiment: Spinal Cord ChAT Activity Assay; assay type: cell-based; details: ChAT measured after 48 hours
[2] = test system: lumbar motoneurons of chick embryos; experiment: Inhibition of Motoneuron Death In Ovo; assay type: in vivo; details: for Number of motoneurons mean ± SD / % of motoneurons rescued versus control: E6-E9; for Number of motoneurons mean ± SD: one side of spinal cord
Protocol: The samples (50 ul) were applied to the vascularized chorioallantoic membrane through a window in the egg shell as previously described (Oppenheim et al., 1988). Embryos were sacrificed on E10 and spinal cords were removed, fixed in Carnoy's solution (10% acetic acid, 60% ethanol, 30% chloroform), embedded in paraffin, sectioned at 8 um, and stained with thionin as described previously (Oppenheim et al., 1988). Motoneurons (identified by morphology and position) were counted by an individual blind to the treatment conditions in every tenth section according to previously established criteria (Oppenheim et al., 1982, Oppenheim, 1986).

trkA tyrosine kinase = trkA tyrosine kinase (Homo sapiens, UniProt P04629); experiment: trkA Tyrosine Kinase Activity Inhibition Assay (ELISA); assay type: biochemical; details: 16 μM ATP, 37° C., 15 min; read-out: INHIBITION OF trkA KINASE IC50
Protocol: These compounds were then tested for the ability to inhibit substrate phosphorylation by the trkA tyrosine kinase.
Plates were washed three times with TBST, followed by two washes with TBS (TBST sans Tween-20). Fused pyrrolocarbazoles were then added at various concentrations to a reaction mixture (50 mM HEPES, pH 7.4, 5 mM MnCl2, 5 mM MgCl2, 140 mM NaCl, 16 μM ATP, and 15 ng trkA in a total volume of 1001 μL.). As a negative control, 100 mM EDTA was included in the reaction solution. The plates were then incubated at 37° C. for 15 min. The detection antibody, monoclonal anti-phosphotyrosine antibody (UBI), was added at a dilution of 1:2000 in TBST, and incubated for 1 hour at 37° C. Plates were then washed three times with TBST, followed by a 1 hour incubation at 37° C. with alkaline phosphatase-labeled goat anti-mouse IgG (1:2000 in TBST (Bio-Rad)). After washing three times with TBST followed by two washes with TBS, a colored product was produced by using NADPH as substrate for alkaline phosphatase, and the coupled reactions of diaphorase and alcohol dehydrogenase (GIBCO-BRL ELISA amplification system). The colored product was read at 490 nm in a microplate reader (Biotek).

chick DRG neurons = experiment: DRG Neuron Survival Assay (calcein AM); assay type: cell-based; details: Gallus gallus, DRG neuron, 48 hours, read-out: Neuronal Survival (% of Control)
Protocol: Fused pyrrolocarbazoles promoted dorsal root ganglion (DRG) neuronal survival in cultures of chick DRG neurons. Cell survival was measured by uptake of calcein AM, an analog of the viable dye, fluorescein diacetate. Calcein is taken up by viable cells and cleaved intracellularly to fluorescent salts which are retained by intact membranes of viable cells. Microscopic counts of viable neurons correlate directly with relative fluorescence values obtained with the fluorimetric viability assay. This method thus provides a reliable and quantitive measurement of cell survival in the total cell population of a given culture (Bozyczko-Coyne et al., J. Neur. Meth. 50:205-216, 1993).
Methods: Dorsal root ganglia were dissected from embryonic age day 9 chick embryos and dissociated cells prepared by subsequent Dispase (neutral protease, Collaborative Research) dissociation. Neurons were seeded at low density (3×10^4 cells/cm^2) into 96 well poly-L-ornithine and laminin coated plates. Cells were cultured for 48 hours in serum-free N2 medium (Bottenstein and Sato, 1979) at 37° C. in a humidified atmosphere, 5% CO2 /95% air. Cell survival was assessed at 48 hours using the viable fluorimetric assay described above.

[3] = test system: indoleamine 2,3-dioxygenase (IDO) mRNA in THP-1 cells; experiment: Inhibition of Induction By IFNγ of IDO mRNA; assay type: cell-based; details: Homo sapiens, IDO/GAPD mRNA ratio, 48 hours, read-out: IDO mRNA, Phosphorimager units, % of IFNγ-treated cells; for mrna remaining at 0.4 µM: compound 400 nM, IFNγ 400 units/ml
Protocol: Fused pyrrolocarbazoles in accordance with our invention were tested for their ability to inhibit the induction by IFNγ of indoleamine 2,3-dioxygenase (IDO) mRNA in THP-1 cells, a human monocyte cell line.
Cell Culture: THP-1 cells (American Type Culture Collection, Rockville, Md.), a human monocytic leukemia cell line, were grown in RPMI 1640 medium (Mediatech, Herndon Valley, Va.) with 50 μM 2-mercaptoethanol and 10% fetal bovine serum. Cells were plated in T75 culture flasks, at 4×10^4 cells/cm^2 in 10 ml of medium, and were immediately treated with fused pyrrolocarbazoles at various concentrations. After 30 minutes recombinant (E. coli) IFNγ (Boehringer Mannheim Corporation,Indianapolis, Ind.) was added at 200-400 units/ml. Cells were incubated (37° C., 5% CO2 /95% Air) for 48 hours after treatment.
RNA Isolation: Cells were pelleted by centrifugation (50× g, 7 min.) and medium was decanted. The cells were then washed two times with phosphate buffered saline pH 7.2 (PBS) (Mediatech, Herndon Valley, Va.). The washed cell pellet was lysed in 2 ml RNAzol B (Tel-Test, Inc., Friendswood, Tex.). RNA was isolated by chloroform extraction, precipitated, and washed following the "RNAzol B isolation of RNA" protocol accompanying this product. RNA was then solubilized in H2 O, and the concentration and purity were determined by reading the absorbance at A260 nm and A280 nm. Finally, the RNA was reprecipitated in ethanol, overnight at -20° C.
cDNA Probes: Indoleamine 2,3-dioxygenase (IDO) cDNA was received from Sohan L. Gupta, Ph. D. (Hipple Cancer Research Center, Dayton, Ohio) (see Da., W. & Gupta, S. L. 168 Biochem. Biophys. Res. Commun. 1, 1990 and Hassanain, H. H. et al. 268 J. Biol. Chem. 5077, 1993). Glyceraldehyde-3-phosphate dehydrogenase (GAPD) cDNA was obtained through American Type Culture Collection (Rockville, Md.). These cDNA's were produced and purified using standard methods (see, Sambrook, Fritsch, Maniatis (1989) Molecular Cloning a Laboratory Manual/Second Edition 1, 1.21-1.24, 1.74-1.81, hereinafter in this Example, "Maniatis a") using Qiagen plasmid purification kits (Qiagen Inc., Chatsworth, Calif.). DNA concentration and purity were determined by absorbance at 280 nm and 260 nm. Specific DNA inserts were cut out by standard methods using restriction enzymes, and subsequently separated on agarose gels as in Maniatis (see, Sambrook, Fritsch, Maniatis (1989) Molecular Cloning a Laboratory Manual/Second Edition 1, 6.9-6.15, hereinafter in this Example, "Maniatis b"). cDNA probes were further purified for [^32 P] labeling using the Geneclean II DNA purification kit (BIO 101, Inc., La Jolla, Calif.). Probes were labeled with dCTP-α-^32 P (Amersham Corp., Arlington Heights, Ill.) by random primer labeling, using the Prime-a-GeneLabeling System (Promega Corp., Madison, Wis.).
Analysis and quantification of mRNA: IDO mRNA was detected by Northern blot analysis (see Maniatis a, p. 7.39-7.51) using standard methods. […] Quantification of IDO mRNA was carried out using a phosphorimager (Molecular Dynamics) in which density (i.e., amount of RNA) is expressed as relative phosphorimager units. […] GAPD mRNA measurement by phosphorimager quantification of Northern blots serves as a means to normalize for potential sample to sample differences in the amount of total RNA loaded on gels. […]

protein kinase C = experiment: PKC Activity Inhibition Assay; assay type: biochemical
Protocol: Fused pyrrolocarbazoles inhibited the activity of protein kinase C (Table VI). The protein kinase C assay has been disclosed (Murakata et al., U.S. Pat. No. 4,923,986; Kikkawa et al., J. Biol. Chem. 257:13341-13348 (1982)). The assay was performed with several concentrations of fused pyrrolocarbazoles. The concentration at which protein kinase C was 50% inhibited (IC50) was determined.

AT-2 cells = experiment: Inhibition of Growth of Prostate Cancer Cell Line (MTS assay); assay type: cell-based; details: 72 h; 3 days, MTS; read-out: AT-2 cell growth IC50
Protocol: AT-2 cells are a prostate cancer cell sub-line derived from the Dunning H tumor, graciously provided to us by Dr. John Isaacs (John Hopkins, M. D.). Unlike the Dunning H tumor cells, AT-2 cells can be grown in vitro.
Methods: At-2 cells ([…]) were plated on tissue culture plastic in 96-well plates in the presence of RPMI-1640 medium containing 10% fetal calf serum, 250 nM dexamethasone, 2 mM glutamine, 1 mM sodium pyruvate, and penicillin/streptomycin antibiotics. The next day, compounds were added at 4 concentrations (10, 1, 0.1, 0.01 μM) to determine the approximate IC50 range. Cultures were assayed 3 days later for cell number using the MTS [(3-(4,5-dimethylthiazol-2-yl)-5-(3-carboxymethoxyphenyl)-2-(4-sulfophenyl)-2H-tetrazolium, inner salt)] assay. The MTS assay (purchased as a kit from Promega) measures the formation of an aqueous soluble formazan (detected by a plate reader at 490nm) produced by the bioreduction of a tetrazolium compound (MTS) in metabolically active cells via mitochondrial succinate dehydrogenase. After determining linearity of the substrate incubation time over a range of cell plating densities, the amount of product measured is directly proportional to cell number. MTS (333 ug/ml) and 25 μM phenazine methosulfate are mixed and added directly to the culture medium, and incubated at 37° C. in the 5% CO2 /95% air incubator for 0.5-4 h. Absorbance of the product at 490 nm is read on the BIO-TEK plate reader. Background values were obtained from wells containing culture medium with substrate solution, but no cells. In addition, values were also obtained from wells containing cells plated at day 0 and assayed on the day compound was added (day 1) in order to determine the number of cells at the time compound was added. After the initial dose-finding experiment was completed, subsequent experiments were set up so that there were 3 or more concentrations near the predicted IC50.

[4] = test system: ChAT activity of basal forebrain cultures; experiment: Basal Forebrain ChAT Activity Assay; assay type: cell-based, rat; details: Rattus norvegicus, 120 h, read-out: ChAT Activity (% of Control)
In short: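 Basal forebrain neurons from E17–18 rat embryos were Dispase-dissociated and plated at 5×10^4 cells/well on poly-ornithine/laminin. Cultures were kept in serum-free N2 medium with 0.05% BSA at 37° C. ChAT activity was measured 5 days after plating as the read-out for compound-induced increase.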

Sequence of trkA tyrosine kinase (P04629 33-796): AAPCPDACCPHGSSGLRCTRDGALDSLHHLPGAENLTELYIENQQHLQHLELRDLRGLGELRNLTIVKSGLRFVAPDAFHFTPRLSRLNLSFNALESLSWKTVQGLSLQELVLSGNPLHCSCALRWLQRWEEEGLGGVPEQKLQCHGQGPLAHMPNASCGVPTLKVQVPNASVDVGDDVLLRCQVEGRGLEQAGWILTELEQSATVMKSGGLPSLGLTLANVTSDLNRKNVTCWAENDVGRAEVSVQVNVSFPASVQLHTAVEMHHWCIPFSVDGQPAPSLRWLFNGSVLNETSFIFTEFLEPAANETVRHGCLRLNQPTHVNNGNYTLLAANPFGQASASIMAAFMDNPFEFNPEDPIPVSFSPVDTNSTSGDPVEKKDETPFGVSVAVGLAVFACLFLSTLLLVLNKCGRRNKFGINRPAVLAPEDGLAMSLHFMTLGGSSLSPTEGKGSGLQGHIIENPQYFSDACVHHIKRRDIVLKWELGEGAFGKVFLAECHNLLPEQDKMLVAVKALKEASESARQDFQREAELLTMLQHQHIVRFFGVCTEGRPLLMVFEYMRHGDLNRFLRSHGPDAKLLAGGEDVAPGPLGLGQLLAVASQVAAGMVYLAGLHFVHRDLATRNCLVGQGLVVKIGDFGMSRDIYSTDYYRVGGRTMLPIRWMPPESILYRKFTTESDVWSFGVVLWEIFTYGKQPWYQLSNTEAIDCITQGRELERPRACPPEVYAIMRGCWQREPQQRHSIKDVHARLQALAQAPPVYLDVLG

SMILES: O=C1NCc2c1c1c(c3[nH]c4ccc(C=Cc5ccccn5)cc4c23)Cc2ccccc2-1 [Compound I-32, 3-(2-Pyridinylethenyl)-5H,6H,12H,13H-indeno[2,3-a]pyrrolo[3,4-c]carbazole-7(7H)-one]
- Spinal Cord ChAT Activity, % of Control, untreated cultures [1]: 288 % of Control
- Number of motoneurons mean ± SD ([2]; 0.06 ug/egg daily): 9657 ± 529
- % of motoneurons rescued versus control ([2]; 0.3 ug/egg daily): 8%
- Number of motoneurons mean ± SD ([2]; 0.3 ug/egg daily): 10215 ± 481
- % of motoneurons rescued versus control ([2]; 0.6 ug/egg daily): 31%
- Number of motoneurons mean ± SD ([2]; 0.6 ug/egg daily): 12357 ± 499
- increase in motoneuron survival in treated vs. control embryos, maximal effect ([2]; 0.6 ug/egg, vehicle-treated control): 31%
- % of motoneurons rescued versus control ([2]; 1.2 ug/egg daily): 24%
- Number of motoneurons mean ± SD ([2]; 1.2 ug/egg daily): 11743 ± 1497
- dose at which the maximal effect was achieved ([2]; daily dose): 0.6 ug/egg
- IC50 (trkA tyrosine kinase): > 1000 nM
- viability at 0.1 µM (chick DRG neurons; 100 nM): 173%
- viability at 0.25 µM (chick DRG neurons; 250 nM): 164%
- viability at 0.5 µM (chick DRG neurons; 500 nM): 151%
- mrna remaining at 0.4 µM [3]: 70%

- IC50 (protein kinase C): 450 nM
SMILES: O=C1NCc2c3c(c4[nH]c5ccc(Br)cc5c4c21)Cc1ccccc1-3 [Compound I-11, 3-Bromo-6H, 7H, 12H, 13H -indeno[2,3-a]pyrrolo[3,4-carbazole-5(5H)one]
- Spinal Cord ChAT Activity, % of Control, untreated cultures [1]: 188 % of Control
- mrna remaining at 0.4 µM [3]: 49%

- IC50 (AT-2 cells): 3260 nM
- IC50 (trkA tyrosine kinase): 18.4 nM
- IC50 (protein kinase C): 40 nM
SMILES: O=C1NCc2c1c1c(c3c2c2ccccc2n3CCO)Cc2ccccc2-1 [Compound I-29, 13-(2-Hydroxyethyl)-5H,6H,12H,13H-indeno[2,3-a]pyrrolo[3,4-c]carbazole-7(7H)one]
- Spinal Cord ChAT Activity, % of Control, untreated cultures [1]: 154 % of Control
- activity at 0.1 µM ([4]; 100 nM): 140%
- activity at 0.25 µM ([4]; 250 nM): 189%
- activity at 0.5 µM ([4]; 500 nM): 194%
- activity at 1 µM ([4]; 1000 nM): 210%
- mrna remaining at 0.2 µM ([3]; compound 200 nM, IFNγ 200 units/ml): 57%
